According to US7982043B2, “Protein tyrosine kinase enzyme inhibitors” (Wyeth LLC, priority 2003, dated 2011):
Values after ≈ are worked out from the molar mass of the structure shown.

What was measured:
Format in all cases: cell-based
SK-Br-3 cells = assay: Cell proliferation assay (SRB), SK-Br-3; conditions: EGFR −, Her-2 +++, 2 days, SRB; for IC50: Homo sapiens, SK-BR-3, 48 h, read-out: CELL IC50 SKBr3
SW620 cells = assay: Cell proliferation assay (SRB), SW620; conditions: EGFR −, Her-2 −, 2 days, SRB; for IC50: Homo sapiens, SW-620, 48 h, read-out: CELL IC50 SW620
[1] = molecular target: mouse fibroblast cell line transfected with the HER-2 oncogene (3T3/neu) (UniProt P04626, cells depend on it, species not given); assay: Cell proliferation assay (SRB), 3T3/neu; conditions: for GI50: read-out: CELL IC50 3T3/NEU (converted)
A431 cells = assay: Cell proliferation assay (SRB), A431; conditions: EGFR +++, Her-2 +, 2 days, SRB; for IC50: Homo sapiens, A-431, 48 h, read-out: CELL IC50 A431
MDA-MB-435 cells = assay: Cell proliferation assay (SRB), MDA-MB-435; conditions: EGFR −, Her-2 −, 2 days, SRB; for IC50: Homo sapiens, MDA-MB-435, 48 h, read-out: CELL IC50 MDA-MB-435

IC50 (SK-Br-3 cells)	IC50 (SW620 cells)	GI50 ([1]; EGFR −, Her-2 +++, 2 days, SRB)	IC50 (A431 cells)	IC50 (MDA-MB-435 cells)	CELL IC50 SKBr3 (SK-Br-3 cells)	CELL IC50 SW620 (SW620 cells)	CELL IC50 3T3/NEU ([1]; EGFR −, Her-2 +++, 2 days, SRB)	CELL IC50 A431 (A431 cells)	CELL IC50 MDA-MB-435 (MDA-MB-435 cells)	Compound	CELL IC50 3T3/NEU ([1]; mouse fibroblast cell line transfected with the her-2 oncogene (3t3/neu))
> 5 µg/mL	> 5 µg/mL	> 10900 nM	> 5 µg/mL	> 5 µg/mL	–	–	–	–	–	COc1cc2c(Nc3ccc4cn[nH]c4c3)c(C#N)cnc2cc1OCCCN1CCOCC1 [Example 34, 4-(1H-Indazol-6-ylamino)-6-methoxy-7-(3-morpholin-4-yl-propoxy)-quinoline-3-carbonitrile]	–
0.669 µg/mL (≈ 1.43 µM)	1.55 µg/mL (≈ 3.32 µM)	8760 nM	2.88 µg/mL (≈ 6.17 µM)	1 µg/mL (≈ 2.14 µM)	–	–	–	–	–	COc1cc2ncc(C#N)c(Nc3ccc(Sc4nccn4C)c(Cl)c3)c2cc1[N+](=O)[O-] [Example 35, 4-({3-chloro-4-[(1-methyl-1H-imidazol-2-yl)sulfanyl]phenyl}amino)-7-methoxy-6-nitro-3-quinolinecarbonitrile]	–
0.011 µg/mL (≈ 0.0252 µM)	3.16 µg/mL (≈ 7.23 µM)	2430 nM	3.04 µg/mL (≈ 6.96 µM)	0.39 µg/mL (≈ 0.893 µM)	–	–	–	–	–	COc1cc2ncc(C#N)c(Nc3ccc(Sc4nccn4C)c(Cl)c3)c2cc1N [Example 36, 6-amino-4-({3-chloro-4-[(1-methyl-1H-imidazol-2-yl)sulfanyl]phenyl}amino)-7-methoxy-3-quinolinecarbonitrile]	–
0.124 µg/mL (≈ 0.264 µM)	0.15 µg/mL (≈ 0.319 µM)	558 nM	0.148 µg/mL (≈ 0.315 µM)	0.35 µg/mL (≈ 0.745 µM)	–	–	–	–	–	COc1cc2ncc(C#N)c(Nc3ccc(Sc4nccs4)c(Cl)c3)c2cc1[N+](=O)[O-] [Example 38, 4-{[3-chloro-4-(1,3-thiazol-2-ylsulfanyl)phenyl]amino}-7-methoxy-6-nitro-3-quinolinecarbonitrile]	–
0.236 µg/mL (≈ 0.536 µM)	0.55 µg/mL (≈ 1.25 µM)	757 nM	0.663 µg/mL (≈ 1.51 µM)	0.65 µg/mL (≈ 1.48 µM)	–	–	–	–	–	COc1cc2ncc(C#N)c(Nc3ccc(Sc4nccs4)c(Cl)c3)c2cc1N [Example 39, 6-amino-4-{[3-chloro-4-(1,3-thiazol-2-ylsulfanyl)phenyl]amino}-7-methoxy-3-quinolinecarbonitrile]	–
–	–	–	–	–	1.48 µg/mL	1.66 µg/mL	1.09 µg/mL	1.79 µg/mL	0.95 µg/mL	COc1cc2ncc(C#N)c(Nc3ccc(-n4ccnc4)c(Cl)c3)c2cc1[N+](=O)[O-] [Example 41]	–
–	–	–	–	–	1.73 µg/mL	5.99 µg/mL	0.53 µg/mL	1.63 µg/mL	1.27 µg/mL	COc1cc2ncc(C#N)c(Nc3ccc(-n4ccnc4)c(Cl)c3)c2cc1N [Example 42]	–
–	–	–	–	–	2.15 µg/mL	4.66 µg/mL	1.88 µg/mL	1.22 µg/mL	4.58 µg/mL	COc1cc2ncc(C#N)c(Nc3ccc(Sc4nc5ccccc5c(=O)[nH]4)c(Cl)c3)c2cc1N [Example 45]	–
–	–	–	–	–	>5 µg/mL	1.64 µg/mL	>5 µg/mL	0.646 µg/mL	1.16 µg/mL	COc1cc2ncc(C#N)c(Nc3ccc(N(Cc4cccnc4)C(C)=O)c(Cl)c3)c2cc1NC(=O)/C=C/CN(C)C [Example 47]	–
–	–	–	–	–	0.68 µg/mL	2.57 µg/mL	1.79 µg/mL	1.6 µg/mL	2.61 µg/mL	COc1cc2ncc(C#N)c(Nc3ccc(N(Cc4cccnc4)C(C)=O)c(Cl)c3)c2cc1[N+](=O)[O-] [Example 48]	–
–	–	–	–	–	3.41 µg/mL	>5 µg/mL	2.4 µg/mL	>5 µg/mL	3.76 µg/mL	COc1cc2ncc(C#N)c(Nc3ccc(N(Cc4cccnc4)C(C)=O)c(Cl)c3)c2cc1N [Example 49]	–
–	–	–	–	–	3.94 µg/mL	>5 µg/mL	>5 µg/mL	3.68 µg/mL	>5 µg/mL	COc1cc2ncc(C#N)c(Nc3ccc(N(Cc4cccnc4)C(C)=O)c(Cl)c3)c2cc1NC(C)=O [Example 50]	–
0.32 µg/mL (≈ 0.566 µM)	2.18 µg/mL (≈ 3.86 µM)	347 nM	0.775 µg/mL (≈ 1.37 µM)	–	–	–	–	–	–	COc1cc2c(Nc3ccc(Sc4nccn4C)c(Cl)c3)c(C#N)cnc2cc1OCCCN1CCOCC1 [Example 51, 4-{3-chloro-4-[(1-methyl-1H-imidazol-2-yl)sulfanyl]anilino}-6-methoxy-7-[3-(4-morpholinyl)propoxy]-3-quinolinecarbonitrile]	–
0.104 µg/mL (≈ 0.19 µM)	3.69 µg/mL (≈ 6.75 µM)	1780 nM	1.83 µg/mL (≈ 3.35 µM)	–	–	–	–	–	–	COc1cc2c(Nc3ccc(Sc4nccn4C)c(Cl)c3)c(C#N)cnc2cc1OCCCn1ccnn1 [Example 73, 4-{3-chloro-4-[(1-methyl-1H-imidazol-2-yl)sulfanyl]anilino}-6-methoxy-7-[3-(1H-1,2,3-triazol-1-yl)propoxy]-3-quinolinecarbonitrile]	–

Compound	IC50 (SK-Br-3 cells)	IC50 (SW620 cells)	GI50 ([1]; EGFR −, Her-2 +++, 2 days, SRB)	IC50 (A431 cells)	IC50 (MDA-MB-435 cells)	CELL IC50 SKBr3 (SK-Br-3 cells)	CELL IC50 SW620 (SW620 cells)	CELL IC50 3T3/NEU ([1]; EGFR −, Her-2 +++, 2 days, SRB)	CELL IC50 A431 (A431 cells)	CELL IC50 MDA-MB-435 (MDA-MB-435 cells)	CELL IC50 3T3/NEU ([1]; mouse fibroblast cell line transfected with the her-2 oncogene (3t3/neu))
COc1cc2ncc(C#N)c(Nc3ccc(Sc4nc5ccccc5c(=O)[nH]4)c(Cl)c3)c2cc1NC(=O)/C=C/CN(C)C [Example 46]	–	–	–	–	–	0.06 µg/mL	>5 µg/mL	–	0.34 µg/mL	>5 µg/mL	0.15 µg/mL
